Measurements published in patent US8178077B2, “Drug development target protein and target gene, and method of screening” (Reverse Proteomics Research Institute Co., Ltd., priority 2004, dated 2012).

Columns and labels:
[1] = target: T1, FLJ39196 clone-derived protein (human neurocalcin δ) (Homo sapiens, UniProt P61601); assay: SEC/MS interaction analysis (size exclusion spin column and mass analysis) with FLJ39196 clone-derived protein; type: binding
T1 construct: A human full-length cDNA clone was expressed as a protein with an N-terminal His tag; His tag (N); made in house; host or cells: Escherichia coli BL21star(DE3)pLysS (pDEST17 Gateway expression plasmid)
In short: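 Unmodified, non-immobilized protein was mixed with compound and separated by size exclusion on 384-well Unifilter 100 spin columns packed with 10 μL Bio-Gel P6. The protein-fraction filtrate was collected in 50% acetonitrile, deproteinized, concentrated, redissolved in 10 μL of 50% methanol, and 2 μL was injected for ESI mass analysis of compound spectral intensity.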

[2] = target: T2, FLJ20589 clone-derived protein (human hippocalcin-like protein 1, VILIP-3) (Homo sapiens, UniProt P37235); assay: SEC/MS interaction analysis (size exclusion spin column and mass analysis) with FLJ20589 clone-derived protein; type: binding
T2 construct: A human full-length cDNA clone was expressed as a protein with an N-terminal His tag; His tag (N); made in house; host or cells: Escherichia coli BL21star(DE3)pLysS (pDEST17 Gateway expression plasmid)

[3] = protein 0 μM (protein-free reference), compound 1 μM
[4] = protein 0 μM (protein-free reference), compound 10 μM
[5] = protein 0 μM (protein-free reference), compound 100 μM
[6] = protein 0 μM (protein-free reference), compound 250 μM
[7] = protein 23.75 μM, compound 1 μM
[8] = protein 23.75 μM, compound 10 μM
[9] = protein 23.75 μM, compound 100 μM
[10] = protein 23.75 μM, compound 250 μM
[11] = protein 47.5 μM, compound 10 μM
[12] = protein 47.5 μM, compound 100 μM
[13] = protein 47.5 μM, compound 250 μM

c1ccc(-c2ccc(C(c3ccccc3)n3ccnc3)cc2)cc1 (centres unmarked) [Bifonazole]
spectral intensity of the compound in the SEC spin column filtrate (protein fraction) [1, 3]: 32068857 | spectral intensity of the compound in the SEC spin column filtrate (protein fraction) [1, 4]: 34579053 | spectral intensity of the compound in the SEC spin column filtrate (protein fraction) [1, 5]: 30705006 | spectral intensity of the compound in the SEC spin column filtrate (protein fraction) [1, 6]: 32278650 | spectral intensity of the compound in the SEC spin column filtrate (protein fraction) [1, 7]: 27516354 | spectral intensity of the compound in the SEC spin column filtrate (protein fraction) [1, 8]: 30253800 | spectral intensity of the compound in the SEC spin column filtrate (protein fraction) [1, 9]: 60323012 | spectral intensity of the compound in the SEC spin column filtrate (protein fraction) [1, 10]: 85169446 | spectral intensity of the compound in the SEC spin column filtrate (protein fraction) ([1]; protein 47.5 μM, compound 1 μM): 33844567 | spectral intensity of the compound in the SEC spin column filtrate (protein fraction) [1, 11]: 38342358 | spectral intensity of the compound in the SEC spin column filtrate (protein fraction) [1, 12]: 152159135 | spectral intensity of the compound in the SEC spin column filtrate (protein fraction) [1, 13]: 322219706 | spectral intensity of the compound in the SEC spin column filtrate (protein fraction) [2, 3]: 2704636 | spectral intensity of the compound in the SEC spin column filtrate (protein fraction) [2, 4]: 2935358 | spectral intensity of the compound in the SEC spin column filtrate (protein fraction) [2, 5]: 2558136 | spectral intensity of the compound in the SEC spin column filtrate (protein fraction) [2, 6]: 3779926 | spectral intensity of the compound in the SEC spin column filtrate (protein fraction) [2, 7]: 2343078 | spectral intensity of the compound in the SEC spin column filtrate (protein fraction) [2, 8]: 2189489 | spectral intensity of the compound in the SEC spin column filtrate (protein fraction) [2, 9]: 3826699 | spectral intensity of the compound in the SEC spin column filtrate (protein fraction) [2, 10]: 3607174 | spectral intensity of the compound in the SEC spin column filtrate (protein fraction) ([2]; protein 47.5 μM, compound 1 μM): 1367901 | spectral intensity of the compound in the SEC spin column filtrate (protein fraction) [2, 11]: 2513645 | spectral intensity of the compound in the SEC spin column filtrate (protein fraction) [2, 12]: 8024232 | spectral intensity of the compound in the SEC spin column filtrate (protein fraction) [2, 13]: 28949362

Fc1ccc(C(c2ccc(F)cc2)N2CCN(C/C=C/c3ccccc3)CC2)cc1 [Flunarizine]
spectral intensity of the compound in the SEC spin column filtrate (protein fraction) [2, 3]: 188851 | spectral intensity of the compound in the SEC spin column filtrate (protein fraction) [2, 4]: 200579 | spectral intensity of the compound in the SEC spin column filtrate (protein fraction) [2, 5]: 198757 | spectral intensity of the compound in the SEC spin column filtrate (protein fraction) [2, 6]: 253795 | spectral intensity of the compound in the SEC spin column filtrate (protein fraction) [2, 7]: 501950 | spectral intensity of the compound in the SEC spin column filtrate (protein fraction) [2, 8]: 137693 | spectral intensity of the compound in the SEC spin column filtrate (protein fraction) [2, 9]: 181386 | spectral intensity of the compound in the SEC spin column filtrate (protein fraction) [2, 10]: 308575 | spectral intensity of the compound in the SEC spin column filtrate (protein fraction) ([2]; protein 47.5 μM, compound 1 μM): 58869 | spectral intensity of the compound in the SEC spin column filtrate (protein fraction) [2, 11]: 178128 | spectral intensity of the compound in the SEC spin column filtrate (protein fraction) [2, 12]: 2683794 | spectral intensity of the compound in the SEC spin column filtrate (protein fraction) [2, 13]: 9317332

C[C@]12Cc3c[nH]nc3C[C@@H]1CC[C@@H]1[C@@H]2CC[C@@]2(C)[C@H]1CC[C@]2(C)O [stanozolol]
spectral intensity of the compound in the SEC spin column filtrate (protein fraction) [1, 3]: 3108300 | spectral intensity of the compound in the SEC spin column filtrate (protein fraction) [1, 4]: 2749518 | spectral intensity of the compound in the SEC spin column filtrate (protein fraction) [1, 5]: 3830491 | spectral intensity of the compound in the SEC spin column filtrate (protein fraction) [1, 6]: 4150230 | spectral intensity of the compound in the SEC spin column filtrate (protein fraction) [1, 7]: 3620481 | spectral intensity of the compound in the SEC spin column filtrate (protein fraction) [1, 8]: 10223886 | spectral intensity of the compound in the SEC spin column filtrate (protein fraction) [1, 9]: 127989356 | spectral intensity of the compound in the SEC spin column filtrate (protein fraction) [1, 10]: 194560574 | spectral intensity of the compound in the SEC spin column filtrate (protein fraction) ([1]; protein 47.5 μM, compound 1 μM): 3989532 | spectral intensity of the compound in the SEC spin column filtrate (protein fraction) [1, 11]: 25533379 | spectral intensity of the compound in the SEC spin column filtrate (protein fraction) [1, 12]: 619287498 | spectral intensity of the compound in the SEC spin column filtrate (protein fraction) [1, 13]: 778914733

Dihydroergotoxine mesylate
spectral intensity of the compound in the SEC spin column filtrate (protein fraction) ([1]; measured mass range m/z 564.1-565.1, protein 0 μM (protein-free reference), compound 1 μM): 25150786 | spectral intensity of the compound in the SEC spin column filtrate (protein fraction) ([1]; measured mass range m/z 564.1-565.1, protein 0 μM (protein-free reference), compound 10 μM): 29311635 | spectral intensity of the compound in the SEC spin column filtrate (protein fraction) ([1]; measured mass range m/z 564.1-565.1, protein 0 μM (protein-free reference), compound 100 μM): 76261189 | spectral intensity of the compound in the SEC spin column filtrate (protein fraction) ([1]; measured mass range m/z 564.1-565.1, protein 0 μM (protein-free reference), compound 250 μM): 326128137 | spectral intensity of the compound in the SEC spin column filtrate (protein fraction) ([1]; measured mass range m/z 564.1-565.1, protein 23.75 μM, compound 1 μM): 19680823 | spectral intensity of the compound in the SEC spin column filtrate (protein fraction) ([1]; measured mass range m/z 564.1-565.1, protein 23.75 μM, compound 10 μM): 36914079 | spectral intensity of the compound in the SEC spin column filtrate (protein fraction) ([1]; measured mass range m/z 564.1-565.1, protein 23.75 μM, compound 100 μM): 177369018 | spectral intensity of the compound in the SEC spin column filtrate (protein fraction) ([1]; measured mass range m/z 564.1-565.1, protein 23.75 μM, compound 250 μM): 232715490 | spectral intensity of the compound in the SEC spin column filtrate (protein fraction) ([1]; measured mass range m/z 564.1-565.1, protein 47.5 μM, compound 1 μM): 16556794 | spectral intensity of the compound in the SEC spin column filtrate (protein fraction) ([1]; measured mass range m/z 564.1-565.1, protein 47.5 μM, compound 10 μM): 45033425 | spectral intensity of the compound in the SEC spin column filtrate (protein fraction) ([1]; measured mass range m/z 564.1-565.1, protein 47.5 μM, compound 100 μM): 221983211 | spectral intensity of the compound in the SEC spin column filtrate (protein fraction) ([1]; measured mass range m/z 564.1-565.1, protein 47.5 μM, compound 250 μM): 530510575 | spectral intensity of the compound in the SEC spin column filtrate (protein fraction) ([1]; measured mass range m/z 577.9-578.9, protein 0 μM (protein-free reference), compound 1 μM): 17036968 | spectral intensity of the compound in the SEC spin column filtrate (protein fraction) ([1]; measured mass range m/z 577.9-578.9, protein 0 μM (protein-free reference), compound 10 μM): 25343556 | spectral intensity of the compound in the SEC spin column filtrate (protein fraction) ([1]; measured mass range m/z 577.9-578.9, protein 0 μM (protein-free reference), compound 100 μM): 62894601 | spectral intensity of the compound in the SEC spin column filtrate (protein fraction) ([1]; measured mass range m/z 577.9-578.9, protein 0 μM (protein-free reference), compound 250 μM): 234871658 | spectral intensity of the compound in the SEC spin column filtrate (protein fraction) ([1]; measured mass range m/z 577.9-578.9, protein 23.75 μM, compound 1 μM): 25890358 | spectral intensity of the compound in the SEC spin column filtrate (protein fraction) ([1]; measured mass range m/z 577.9-578.9, protein 23.75 μM, compound 100 μM): 421344902 | spectral intensity of the compound in the SEC spin column filtrate (protein fraction) ([1]; measured mass range m/z 577.9-578.9, protein 23.75 μM, compound 250 μM): 408003600 | spectral intensity of the compound in the SEC spin column filtrate (protein fraction) ([1]; measured mass range m/z 577.9-578.9, protein 47.5 μM, compound 1 μM): 31988946 | spectral intensity of the compound in the SEC spin column filtrate (protein fraction) ([1]; measured mass range m/z 577.9-578.9, protein 47.5 μM, compound 10 μM): 207450982 | spectral intensity of the compound in the SEC spin column filtrate (protein fraction) ([1]; measured mass range m/z 577.9-578.9, protein 47.5 μM, compound 100 μM): 908698063 | spectral intensity of the compound in the SEC spin column filtrate (protein fraction) ([1]; measured mass range m/z 577.9-578.9, protein 47.5 μM, compound 250 μM): 1265975868 | spectral intensity of the compound in the SEC spin column filtrate (protein fraction) ([1]; measured mass range m/z 611.7-612.7, protein 0 μM (protein-free reference), compound 1 μM): 18486648 | spectral intensity of the compound in the SEC spin column filtrate (protein fraction) ([1]; measured mass range m/z 611.7-612.7, protein 0 μM (protein-free reference), compound 10 μM): 24024699 | spectral intensity of the compound in the SEC spin column filtrate (protein fraction) ([1]; measured mass range m/z 611.7-612.7, protein 0 μM (protein-free reference), compound 100 μM): 30737736 | spectral intensity of the compound in the SEC spin column filtrate (protein fraction) ([1]; measured mass range m/z 611.7-612.7, protein 0 μM (protein-free reference), compound 250 μM): 58888872 | spectral intensity of the compound in the SEC spin column filtrate (protein fraction) ([1]; measured mass range m/z 611.7-612.7, protein 23.75 μM, compound 1 μM): 35126832 | spectral intensity of the compound in the SEC spin column filtrate (protein fraction) ([1]; measured mass range m/z 611.7-612.7, protein 23.75 μM, compound 10 μM): 106708813 | spectral intensity of the compound in the SEC spin column filtrate (protein fraction) ([1]; measured mass range m/z 611.7-612.7, protein 23.75 μM, compound 100 μM): 397014202 | spectral intensity of the compound in the SEC spin column filtrate (protein fraction) ([1]; measured mass range m/z 611.7-612.7, protein 23.75 μM, compound 250 μM): 267260198 | spectral intensity of the compound in the SEC spin column filtrate (protein fraction) ([1]; measured mass range m/z 611.7-612.7, protein 47.5 μM, compound 1 μM): 40595551 | spectral intensity of the compound in the SEC spin column filtrate (protein fraction) ([1]; measured mass range m/z 611.7-612.7, protein 47.5 μM, compound 10 μM): 194133547 | spectral intensity of the compound in the SEC spin column filtrate (protein fraction) ([1]; measured mass range m/z 611.7-612.7, protein 47.5 μM, compound 100 μM): 931095764 | spectral intensity of the compound in the SEC spin column filtrate (protein fraction) ([1]; measured mass range m/z 611.7-612.7, protein 47.5 μM, compound 250 μM): 1112309560
